Experimental data taken from patent US20090264528A1, “SERINE PALMITOYLCOA TRANSFERASE (SPT) INHIBITION BY MYRIOCIN OR GENETIC DEFICIENCY DECREASES CHOLESTEROL ABSORPTION” (The Research Foundation of State University of New York, priority 2008, published 2009).

Tests used:
[1] = biological target: T1, Serine palmitoylCoA transferase (SPT) (Mus musculus, UniProt O35704+P97363); test: Tissue SPT activity assay, small intestine homogenate of treated mice; assay type: in vivo; details: chow diet plus myriocin for 3 weeks, vs chow controls
T1 construct: from tissue; host or cells: small intestine homogenate of C57BL/6J WT and apoE KO mice fed chow with or without myriocin
T1 sequence (O35704 1-473): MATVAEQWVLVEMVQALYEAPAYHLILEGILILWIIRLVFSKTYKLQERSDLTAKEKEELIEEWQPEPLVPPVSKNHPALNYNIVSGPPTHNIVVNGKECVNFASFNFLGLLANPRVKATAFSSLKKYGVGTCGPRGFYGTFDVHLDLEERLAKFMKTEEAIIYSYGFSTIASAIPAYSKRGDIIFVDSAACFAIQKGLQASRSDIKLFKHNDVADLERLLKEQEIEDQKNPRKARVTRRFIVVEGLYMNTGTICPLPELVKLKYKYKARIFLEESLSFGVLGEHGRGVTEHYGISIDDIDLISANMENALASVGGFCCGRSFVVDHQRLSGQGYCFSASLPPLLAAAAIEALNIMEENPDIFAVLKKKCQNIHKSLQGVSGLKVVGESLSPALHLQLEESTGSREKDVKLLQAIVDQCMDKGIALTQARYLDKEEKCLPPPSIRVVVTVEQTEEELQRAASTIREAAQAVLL
T1 sequence (P97363 1-560): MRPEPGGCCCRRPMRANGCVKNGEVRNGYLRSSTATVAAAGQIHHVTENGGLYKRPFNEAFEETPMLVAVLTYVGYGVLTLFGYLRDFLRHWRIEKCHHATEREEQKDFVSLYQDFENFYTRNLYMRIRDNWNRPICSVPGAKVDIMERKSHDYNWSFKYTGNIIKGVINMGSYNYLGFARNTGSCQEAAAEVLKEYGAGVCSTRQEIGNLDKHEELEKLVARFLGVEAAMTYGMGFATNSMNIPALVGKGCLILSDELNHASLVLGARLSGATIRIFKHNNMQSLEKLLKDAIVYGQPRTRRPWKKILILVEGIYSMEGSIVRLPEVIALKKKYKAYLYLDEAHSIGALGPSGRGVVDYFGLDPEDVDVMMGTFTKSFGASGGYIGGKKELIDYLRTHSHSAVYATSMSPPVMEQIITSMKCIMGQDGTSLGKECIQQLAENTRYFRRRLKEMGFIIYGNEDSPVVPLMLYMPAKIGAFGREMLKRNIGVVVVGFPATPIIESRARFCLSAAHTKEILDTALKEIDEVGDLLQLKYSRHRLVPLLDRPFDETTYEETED
T1 sequence (Q8R207 1-71 partner): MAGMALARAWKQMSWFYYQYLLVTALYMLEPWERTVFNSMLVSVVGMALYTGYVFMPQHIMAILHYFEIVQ
Experimental: FIGS. 1A-1C depict three graphical representations of SPT deficiency decreased SPT activity in mouse small intestine. SPT activity of small intestine homogenate was measured with […] and palmitoyl-coenzyme A as substrates. TLC was performed to separate the product, 3-keto-dihydrosphingosine (KDS, Inset). KDS band was scanned. In FIG. 1A, wildtype (WT) mice fed chow diet or chow diet plus myriocin. In FIG. 1B, apoE KO (knockout)
Mice and diet: Male C57BL/6J and apoE KO (Apolipoprotien E knockout) mice with a C57BL/6J background were obtained from the Jackson Laboratory (Bar Harbor, Me.). Sptlc1 heterozygous KO mice with a C57BL/6 background were created and bred in the inventors' laboratory. Myriocin was mixed with a chow diet. […] The myriocin dose was chosen from a previous dose-dependent experiment with apoE-KO mice. Controls consisted of WT or apoE KO mice fed a chow diet (n=6). Sptlc1 heterozygous KO (Sptlc1^+/−)(n=6) and WT mice were also fed a chow diet.
Tissue SPT activity assay: Mouse small intestine (0.2 g) was homogenized in 0.5 ml of 50 mM Tris-HCl, pH 7.4, 5 mM EDTA, and 250 mM sucrose. SPT activity in the homogenates was measured with [^14C]-serine and palmitoyl-coenzyme A for substrates, as previously described (22), which is incorporated herein by reference in its entirety. […]

[2] = tested on: NPC1L1 mRNA; test: Real-time PCR, NPC1L1 mRNA; assay type: in vivo, mouse; details: small intestine (jejunum)
Experimental: (§1) FIGS. 9A-F depict that Mouse small intestine and liver NPC1L1, ABCG5/G8, and ABCA1 mRNA measurements. NPC1L1, ABCG5/G8, and ABCA1 mRNA levels were measured by real-time PCR as described in “Methods and Materials.” FIG. 9A, jejunum from WT mice with or without myriocin treatment; FIG. 9B, jejunum from apoE KO mice with or without myriocin treatment; FIG. 9C, jejunum from WT and Sptlc1^+/− mice; FIG. 9D, liver from WT mice with or without myriocin treatment; FIG. 9E, liver from apoE KO mice with or without myriocin treatment; FIG. 9F, liver from WT and Sptlc1^+/− mice. Values are mean±SD, n=5. *P<0.01.
Real-time PCR examined genes' expression: Mice were sacrificed by cervical dislocation. Jejunum was dissected, and total RNA extracted with Trizol (Invitrogen). cDNA was synthesized with an Invitrogen kit. […] The genes' relative expression was expressed as mean±SD. […]
For further elucidation of the possible mechanisms for cholesterol absorption reduction in the SPT-deficient small intestine, NPC1L1, ABCG5/G8, and ABCA1 mRNA levels in myriocin-treated WT, apoE KO, and Sptlc1^+/− mice, as well as in controls were measured. […] Also, the liver mRNA levels were measured to find that myriocin treatment or Sptlc1 deficiency has no influence on ABCG5/G8 mRNA levels (FIG. 7B). […] NPC1L1 mRNA in WT or Sptlc1^+/− livers were not detected (data not shown).

[3] = tested on: ABCG5 mRNA; test: Real-time PCR, ABCG5 mRNA; assay type: in vivo, mouse; details: for increase of ABCG5 mRNA levels compared with controls: small intestine, P<0.01
Experimental: as §1
Real-time PCR examined genes' expression: Mice were sacrificed by cervical dislocation. Jejunum was dissected, and total RNA extracted with Trizol (Invitrogen). cDNA was synthesized with an Invitrogen kit. Polymerase chain reaction (PCR) was performed on a total volume of 20 microl with the sybergreen kit from Applied Biosystems, 18S being used as an internal control. The amplification program consisted of activation at 95 degrees C. for 10 minutes, followed by 40 amplification cycles: 95 degrees C. for 15 seconds, 60 degrees C. for 1 minute. Each sample was triplicated. The genes' relative expression was expressed as mean±SD. The primers are located in the below table which lists the name, sequence, and sequence identification number.
For further elucidation of the possible mechanisms for cholesterol absorption reduction in the SPT-deficient small intestine, NPC1L1, ABCG5/G8, and ABCA1 mRNA levels in myriocin-treated WT, apoE KO, and Sptlc1^+/− mice, as well as in controls were measured. […] Moreover, intestinal MTP activity was not influenced by SPT deficiency (data not shown). Also, the liver mRNA levels were measured to find that myriocin treatment or Sptlc1 deficiency has no influence on ABCG5/G8 mRNA levels […]. […] NPC1L1 mRNA in WT or Sptlc1^+/− livers were not detected (data not shown).

CCCCCCC(=O)CCCCCC/C=C/C[C@@H](O)[C@H](O)[C@@](N)(CO)C(=O)O [Myriocin, myriocin]
less SPT activity than controls in the small intestine ([1]; WT mice): 60% | less SPT activity than controls in the small intestine ([1]; apoE KO mice): 65% | NPC1L1 mRNA levels [2]: No significant changes | ABCG5 mRNA levels (printed ABCG5/G8) ([3]; liver): no influence | increase of ABCG5 mRNA levels compared with controls ([3]; WT mice): 52% | increase of ABCG5 mRNA levels compared with controls ([3]; apoE KO mice): 69%
